Reference: the supplement of paper PMC10307832

Legend:
Assay in all cases: relative viability (nuclei count vs DMSO), 5 days (fraction); higher = more cells survive
[1] = compound: N#CC[C@H](C1CCCC1)n1cc(-c2ncnc3[nH]ccc23)cn1 [Ruxolitinib] + O=C(c1cc(Cc2n[nH]c(=O)c3ccccc23)ccc1F)N1CCN(C(=O)C2CC2)CC1 [Olaparib] (partner 8 µM)
In short: (§1)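 Medians of duplicate plates are given as relative viability. That measure is the nuclei count in treated wells divided by the count in vehicle wells. Counts were taken on 4× images of lung cancer cell lines in 1536-well plates, 5 days after pin-tool dosing the day after seeding with one drug alone or a fixed anchor-drug dose plus five library-drug doses (not always all listed) in √10 steps.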

[2] = compound: N#CC[C@H](C1CCCC1)n1cc(-c2ncnc3[nH]ccc23)cn1 [Ruxolitinib] + CS(=O)(=O)N1CCN(Cc2cc3nc(-c4cccc5[nH]ncc45)nc(N4CCOCC4)c3s2)CC1 [Pictilisib] (partner 1 µM)
In short: as §1

[3] = compound: N#CC[C@H](C1CCCC1)n1cc(-c2ncnc3[nH]ccc23)cn1 [Ruxolitinib] + CC(C)C[C@H](NC(=O)[C@H](Cc1ccccc1)NC(=O)c1cnccn1)B(O)O [Bortezomib] (partner 0.002 µM)
In short: as §1

[4] = compound: CS(=O)(=O)c1ccc(-c2cnc(N)c(C(=O)Nc3ccccc3)n2)cc1 [VE-821] + Cc1cc(Nc2cc(N3CCN(C)CC3)nc(Sc3ccc(NC(=O)C4CC4)cc3)n2)n[nH]1 [Tozasertib] (partner 0.1 µM)
In short: as §1

Cell Line	relative viability ([1]; first compound 0.08 µM)	relative viability ([1]; first compound 0.253 µM)	relative viability ([1]; first compound 0.8 µM)	relative viability ([1]; first compound 2.53 µM)	relative viability ([1]; first compound 8 µM)	relative viability ([2]; first compound 0.08 µM)	relative viability ([2]; first compound 0.253 µM)	relative viability ([2]; first compound 0.8 µM)	relative viability ([2]; first compound 2.53 µM)	relative viability ([2]; first compound 8 µM)	relative viability ([3]; first compound 0.08 µM)	relative viability ([3]; first compound 0.253 µM)	relative viability ([3]; first compound 0.8 µM)	relative viability ([3]; first compound 2.53 µM)	relative viability ([3]; first compound 8 µM)	relative viability ([4]; first compound 0.08 µM)	relative viability ([4]; first compound 0.253 µM)	relative viability ([4]; first compound 0.8 µM)	relative viability ([4]; first compound 2.53 µM)	relative viability ([4]; first compound 8 µM)
LCLC-97TM1	0.367	0.292	0.331	0.417	0.295	0.182	0.153	0.214	0.158	0.198	0.407	0.69	0.635	0.906	0.526	0.307	0.224	0.213	0.484	0.184
HCC-827		0.469	0.469	0.49	0.594	0.654	0.973	0.919	0.906	0.944	1.05	0.993	1.01	0.881	0.798	0.427	0.424	0.391	0.394	0.372
NCI-H596	0.761	0.71	0.844	0.696	0.751	0.379	0.339	0.387	0.418	0.386	0.964	1.17	1.21		0.994	0.916	0.82	0.798	0.954	0.774
NCI-H1734	0.605	0.554	0.64	0.56	0.583	0.479	0.417	0.435	0.37	0.468	0.928	0.924	0.983	0.74	0.835	0.292	0.245	0.235	0.24	0.226
NCI-H1651	0.192	0.179	0.189	0.198	0.211	0.742	0.599	0.727	0.477	0.664	0.944	0.923	0.937	0.794	0.969	0.779	0.616	0.345	0.517	0.422
NCI-H1975	0.854	0.786	0.716	0.675	0.421	0.302	0.254	0.285	0.243	0.231	0.415	0.382	0.482	0.303	0.316	0.862	0.625		0.17	0.139
NCI-H1437	0.669	0.622	0.624	0.549	0.463	0.533	0.351	0.43	0.429	0.397	0.634	0.519	0.586	0.413	0.464	0.437	0.401	0.368	0.421	0.408
HOP-62		0.389	0.381	0.315	0.416		0.743	0.876	0.63	0.839		0.719	1.15	0.856	0.763	0.399	0.404	0.349	0.382	0.361
NCI-H2405	0.931	0.838	0.882	0.633	0.573		0.338	0.463	0.286	0.269	1.02	0.968	0.923	0.99	0.23	0.824	0.714	0.713	0.726	0.742
LC-2-ad	0.797	0.743	0.792	0.801	0.624	0.41	0.313	0.519	0.362	0.211	1.04	0.861	1.22	0.98	0.609	0.427	0.597	0.504	0.565	0.426
NCI-H322M	0.752	0.852	0.79	0.809	1.05	0.4	0.604	0.491	0.611	0.665	1.18	1.31	1.26	1.52	1.64	0.542	0.457	0.451	0.434	0.297
HCC-366	0.424	0.417	0.39	0.287	0.197	0.154	0.134	0.161	0.094	0.101	1.03	0.987	1.16	1.01	0.845	0.0768	0.0713	0.0434	0.0568	0.0298
HCC-78	0.779	0.872	0.897	0.866	0.934	0.162	0.14	0.207	0.255	0.216	0.379	0.365	0.441	0.354	0.391	0.461	0.362	0.385	0.372	0.321
CAL-12T	0.627	0.779	0.756	0.673	0.67		0.355	0.416	0.435	0.471		0.856	1.1	0.979	0.535	0.307	0.227	0.189	0.207	0.147
NCI-H2228	0.58	0.847	0.576	0.614	0.592	0.584	0.362	0.365	0.255	0.246	1.27	1.11	1.14	0.957	1.09	0.312	0.2	0.212	0.256	0.156
EKVX		0.837	0.947	0.731	0.759	0.323	0.385	0.451	0.44	0.521	0.785	0.994	0.986	0.989	0.929	0.45	0.346	0.352	0.39	0.309
HARA	1.17	0.841	1.04	0.793	0.584	0.467	0.472	0.404	0.426	0.328	1.29	1.06	1.11	0.534	1.09	0.109	0.111	0.106	0.112	0.0878
